# Measured values taken from PMC11297040, “Engineering of a mammalian VMAT2 for cryo-EM analysis results in non-canonical protein folding” (Nature Communications, 2024).
# How the values were obtained:
# [1] = target: T1, OaVMAT2WT (Ovis aries, UniProt A0A6P7DBQ8); test: microscale thermophoresis (RED-Tris-NTA labelled protein); type: binding
# T1 construct: gene JEQ12_011695; full-length wild type; N-terminal His10-BRIL-TEV and C-terminal TEV-BRIL-His10 tags, released by TEV cleavage (called His-tagged in MST); Pichia pastoris GS115; DDM; monomer on crosslinking
# [2] = target: T2, XlVMAT2WT (Xenopus laevis, UniProt A0A1L8FIB7); test: as above; type: binding
# T2 construct: gene LOC108696020; full-length wild type, 514 residues, monomer; N-terminal His10-BRIL-TEV and C-terminal TEV-BRIL-His10 tags, released by TEV cleavage (called His-tagged in MST); Pichia pastoris GS115; DDM
# [3] = target: T3, HsVMAT2 (Homo sapiens, UniProt Q05940); test: as above; type: binding
# T3 construct: gene SLC18A2; full-length; N-terminal His10-BRIL-TEV and C-terminal TEV-BRIL-His10 tags, released by TEV cleavage (called His-tagged in MST); Pichia pastoris GS115; DDM
# Source text: microscale thermophoresis (RED-Tris-NTA labelled protein) on HsVMAT2 | MST fitting curves of SER binding to HsVMAT2 WT and variants as indicated
# [4] = target: T4, HsVMAT2 (Homo sapiens, UniProt Q05940, D399A); test: as above; type: binding
# T4 construct: gene SLC18A2; full-length; N-terminal His10-BRIL-TEV and C-terminal TEV-BRIL-His10 tags, released by TEV cleavage (called His-tagged in MST); Pichia pastoris GS115; DDM
# [5] = target: T5, HsVMAT2 (Homo sapiens, UniProt Q05940, L228A); test: as above; type: binding
# T5 construct: gene SLC18A2; full-length; N-terminal His10-BRIL-TEV and C-terminal TEV-BRIL-His10 tags, released by TEV cleavage (called His-tagged in MST); Pichia pastoris GS115; DDM
# Source text: (§1) microscale thermophoresis (RED-Tris-NTA labelled protein) on HsVMAT2 | L228A, V232A, E312A, Y341A, D399A and Y433A, reduced their binding affinities for serotonin
# [6] = target: T6, HsVMAT2 (Homo sapiens, UniProt Q05940, V232A); test: as above; type: binding
# T6 construct: gene SLC18A2; full-length; N-terminal His10-BRIL-TEV and C-terminal TEV-BRIL-His10 tags, released by TEV cleavage (called His-tagged in MST); Pichia pastoris GS115; DDM
# Source text: as §1
# [7] = target: T7, HsVMAT2 (Homo sapiens, UniProt Q05940, Y341A); test: as above; type: binding
# T7 construct: gene SLC18A2; full-length; N-terminal His10-BRIL-TEV and C-terminal TEV-BRIL-His10 tags, released by TEV cleavage (called His-tagged in MST); Pichia pastoris GS115; DDM
# Source text: as §1
# [8] = target: T8, HsVMAT2 (Homo sapiens, UniProt Q05940, Y433A); test: as above; type: binding
# T8 construct: gene SLC18A2; full-length; N-terminal His10-BRIL-TEV and C-terminal TEV-BRIL-His10 tags, released by TEV cleavage (called His-tagged in MST); Pichia pastoris GS115; DDM
# Source text: as §1
# [9] = target: OaVMAT2_(TM8/9-BRIL): sheep (Ovis aries) VMAT2 with the TM8/9 loop replaced by BRIL (Ovis aries | not stated); test: cryo-EM structure; single-particle analysis of OaVMAT2_(TM8/9-BRIL) in 20 mM Tris-HCl pH 7.5, 150 mM NaCl, 5 mM beta-mercaptoethanol, 0.4 mM DDM; C2 symmetry imposed; 3.2 A
# [10] = target: OaVMAT2_(TM8/9-BRIL): sheep (Ovis aries) VMAT2 with the TM8/9 loop replaced by BRIL (Ovis aries | not stated); test: cross-linking; ~10 ug purified protein in 20 mM HEPES-Na pH 7.5, 150 mM NaCl, 5 mM beta-mercaptoethanol, 0.4 mM DDM; glutaraldehyde 4, 2 and 1 mM, 10 min, room temperature; SDS-PAGE
# T1 sequence (A0A6P7DBQ8 1-517): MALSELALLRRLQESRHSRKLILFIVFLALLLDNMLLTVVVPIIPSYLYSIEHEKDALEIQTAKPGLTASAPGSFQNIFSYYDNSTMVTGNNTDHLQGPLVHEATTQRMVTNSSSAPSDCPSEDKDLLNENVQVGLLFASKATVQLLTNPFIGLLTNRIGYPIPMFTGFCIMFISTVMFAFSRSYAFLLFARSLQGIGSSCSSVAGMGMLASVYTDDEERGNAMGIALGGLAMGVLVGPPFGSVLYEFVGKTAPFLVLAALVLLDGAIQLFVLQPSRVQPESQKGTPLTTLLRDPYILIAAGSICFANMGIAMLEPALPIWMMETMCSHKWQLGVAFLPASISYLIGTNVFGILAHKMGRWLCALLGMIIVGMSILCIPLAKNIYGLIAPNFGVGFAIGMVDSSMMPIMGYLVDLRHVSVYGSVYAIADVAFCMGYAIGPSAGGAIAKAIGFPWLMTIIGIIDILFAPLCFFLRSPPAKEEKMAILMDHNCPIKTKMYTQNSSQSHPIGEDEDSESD
# T2 sequence (A0A1L8FIB7 1-514): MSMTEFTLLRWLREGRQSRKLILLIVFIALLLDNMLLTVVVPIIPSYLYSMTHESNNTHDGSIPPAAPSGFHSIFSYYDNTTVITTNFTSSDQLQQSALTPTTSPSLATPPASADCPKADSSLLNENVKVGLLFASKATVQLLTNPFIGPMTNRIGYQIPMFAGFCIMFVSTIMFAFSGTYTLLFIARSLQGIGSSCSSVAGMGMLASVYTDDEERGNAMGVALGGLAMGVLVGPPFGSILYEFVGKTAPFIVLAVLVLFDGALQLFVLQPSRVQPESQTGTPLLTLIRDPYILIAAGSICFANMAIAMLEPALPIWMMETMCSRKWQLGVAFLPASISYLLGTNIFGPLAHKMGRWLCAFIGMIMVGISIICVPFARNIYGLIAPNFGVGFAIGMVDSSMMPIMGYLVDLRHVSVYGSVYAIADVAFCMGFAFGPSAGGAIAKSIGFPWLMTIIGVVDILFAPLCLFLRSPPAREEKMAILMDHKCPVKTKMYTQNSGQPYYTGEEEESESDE
# T6 sequence (Q05940 whole entry V232A): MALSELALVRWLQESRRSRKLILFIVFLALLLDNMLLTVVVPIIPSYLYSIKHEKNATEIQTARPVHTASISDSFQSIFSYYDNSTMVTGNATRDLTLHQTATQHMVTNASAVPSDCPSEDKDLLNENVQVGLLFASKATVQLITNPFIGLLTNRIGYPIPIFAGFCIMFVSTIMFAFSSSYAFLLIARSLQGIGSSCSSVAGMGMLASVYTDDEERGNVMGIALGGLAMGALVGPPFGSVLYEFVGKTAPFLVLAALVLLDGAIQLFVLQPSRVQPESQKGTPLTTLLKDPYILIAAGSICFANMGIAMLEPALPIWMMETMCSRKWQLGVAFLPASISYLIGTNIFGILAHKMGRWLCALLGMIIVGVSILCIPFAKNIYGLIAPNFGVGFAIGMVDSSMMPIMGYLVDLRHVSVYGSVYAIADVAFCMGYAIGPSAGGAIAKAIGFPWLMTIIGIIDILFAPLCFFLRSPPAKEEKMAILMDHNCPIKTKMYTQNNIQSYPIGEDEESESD
# T8 sequence (Q05940 whole entry Y433A): as the sequence (Q05940 whole entry V232A) above, with A232V, Y433A counted along it
# T5 sequence (Q05940 whole entry L228A): as the sequence (Q05940 whole entry V232A) above, with L228A, A232V counted along it
# T4 sequence (Q05940 whole entry D399A): as the sequence (Q05940 whole entry V232A) above, with A232V, D399A counted along it
# T3 sequence (Q05940 whole entry): as the sequence (Q05940 whole entry V232A) above, with A232V counted along it
# T7 sequence (Q05940 whole entry Y341A): as the sequence (Q05940 whole entry V232A) above, with A232V, Y341A counted along it
Kd [3],Kd [4],Kd [5],Kd [6],Kd [7],Kd [8],stoichiometry N [9],stoichiometry N [10],Compound,Kd [1],Kd [2]
,,,,,,,,COC(=O)[C@H]1[C@H]2C[C@@H]3c4[nH]c5cc(OC)ccc5c4CCN3C[C@H]2C[C@@H](OC(=O)c2cc(OC)c(OC)c(OC)c2)[C@@H]1OC [reserpine],16 ± 5.7 nM,17 ± 8.8 nM
450 ± 50 nM,22100 ± 3600 nM,3150 ± 550 nM,3850 ± 1610 nM,810 ± 220 nM,3910 ± 1300 nM,,,NCCc1c[nH]c2ccc(O)cc12 [serotonin],210 ± 60 nM,430 ± 220 nM
,,,,,,2,2,OaVMAT2_(TM8/9-BRIL): sheep (Ovis aries) VMAT2 with the TM8/9 loop replaced by BRIL,,
